The values that follow come from doi:10.1101/2024.03.25.586180v1 (biorxiv, 2024).

This assay concerns the target T1, BT2 (Bacteroides thetaiotaomicron, UniProt Q8A5T1).
T1 sequence (Q8A5T1 20-290): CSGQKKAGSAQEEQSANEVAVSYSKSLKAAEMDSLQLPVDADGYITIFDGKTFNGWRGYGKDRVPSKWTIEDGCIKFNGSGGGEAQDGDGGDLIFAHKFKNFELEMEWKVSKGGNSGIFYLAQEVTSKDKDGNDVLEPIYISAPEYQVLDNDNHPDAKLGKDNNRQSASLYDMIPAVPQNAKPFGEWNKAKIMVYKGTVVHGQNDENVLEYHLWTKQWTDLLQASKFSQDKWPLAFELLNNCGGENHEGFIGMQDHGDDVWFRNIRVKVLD
The assay can be described thus: 1H-NMR, elimination. It counts as biochemical. To be noted: elimination to 3-keto-2-hydroxy-glucal.

On to `CO[C@H]1O[C@H](CO)[C@@H](O)C(=O)[C@H]1O` [3-keto methyl α-glucoside], for which the “1H-NMR, elimination” value is “while AL/BT2 do so on the α anomer”.
